Laboratory results as given in patent US12258328B2, “6-membered heteroaryl-containing aminopyridine compounds as EGFR inhibitors” (YUHAN CORPORATION, priority 2021, dated 2025).
Where two headings read alike, the source gives them in different places.

Key:
EGFR L858R/T790M/C797S = EGFR L858R/T790M/C797S (Homo sapiens, UniProt P00533, C797S/L858R/T790M); experiment: Biochemical EGFR kinase assay (Lance Ultra TR-FRET), triple mutant L858R/T790M/C797S
Experimental: (§1) Biochemical EGFR kinase assays were conducted using Lance Ultra time-resolved fluorescence resonance energy transfer (TR-FRET) technology from Perkin-Elmer. Compounds of the invention were initially diluted to 20 mM in 100% DMSO for storage and made into kinase buffer solution to create a compound concentration ranging from 0.003 μM and 10 μM.
(§2) Each kinase reactions were incubated at room temperature for 1 hour and then stopped by the addition of 4 μL of stop solution (10 mM EDTA). The specific Europium-labeled-anti-phosphopeptide antibody (PerkinElmer, AD0069) diluted in LANCE detection buffer was then added to a final concentration of 2 nM. After 60 minutes incubation at room temperature the LANCE signal was measured on an EnVision Multilabel Reader (Perkin-Elmer). Excitation wavelength was set at 320 nm and emission monitored at 615 nm (donor) and 665 nm (acceptor). The IC50 values were determined using GraphPad prism software (GraphPad Software, Inc., San Diego, CA, USA).

EGFR wildtype = EGFR wildtype (Homo sapiens, UniProt P00533); experiment: Biochemical EGFR kinase assay (Lance Ultra TR-FRET), wildtype
Sequence of EGFR wildtype (P00533 25-1210): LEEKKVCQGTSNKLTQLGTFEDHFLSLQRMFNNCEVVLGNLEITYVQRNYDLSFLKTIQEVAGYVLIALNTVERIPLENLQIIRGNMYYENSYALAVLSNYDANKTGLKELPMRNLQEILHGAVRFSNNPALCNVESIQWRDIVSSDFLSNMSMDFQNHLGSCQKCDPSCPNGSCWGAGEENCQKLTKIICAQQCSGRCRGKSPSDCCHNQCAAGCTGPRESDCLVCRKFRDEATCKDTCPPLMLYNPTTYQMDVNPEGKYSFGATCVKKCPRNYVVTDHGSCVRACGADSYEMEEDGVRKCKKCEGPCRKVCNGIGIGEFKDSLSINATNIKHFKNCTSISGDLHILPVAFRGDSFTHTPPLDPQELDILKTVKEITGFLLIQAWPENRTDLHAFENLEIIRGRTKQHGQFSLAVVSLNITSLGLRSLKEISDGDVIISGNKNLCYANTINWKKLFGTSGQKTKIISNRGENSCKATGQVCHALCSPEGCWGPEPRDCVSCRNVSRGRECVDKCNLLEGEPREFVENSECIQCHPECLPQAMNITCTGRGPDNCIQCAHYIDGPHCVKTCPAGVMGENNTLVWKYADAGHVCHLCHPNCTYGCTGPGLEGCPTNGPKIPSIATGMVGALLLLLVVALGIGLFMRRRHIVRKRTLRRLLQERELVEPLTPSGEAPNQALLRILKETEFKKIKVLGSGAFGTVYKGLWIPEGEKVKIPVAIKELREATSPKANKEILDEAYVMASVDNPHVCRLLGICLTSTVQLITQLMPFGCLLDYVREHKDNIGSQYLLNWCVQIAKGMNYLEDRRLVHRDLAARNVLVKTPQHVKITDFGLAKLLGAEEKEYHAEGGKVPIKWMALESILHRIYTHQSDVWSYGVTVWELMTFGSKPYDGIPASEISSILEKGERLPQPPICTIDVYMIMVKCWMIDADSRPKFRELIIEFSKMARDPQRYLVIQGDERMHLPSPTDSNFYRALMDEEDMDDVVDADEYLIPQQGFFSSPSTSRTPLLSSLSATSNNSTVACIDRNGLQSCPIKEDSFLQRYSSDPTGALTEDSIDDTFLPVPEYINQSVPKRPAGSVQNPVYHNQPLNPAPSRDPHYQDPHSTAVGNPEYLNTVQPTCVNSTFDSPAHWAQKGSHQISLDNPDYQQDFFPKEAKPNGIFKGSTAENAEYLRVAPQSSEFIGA
Experimental: as §1, §2

EGFR del19/T790M/C797S = EGFR del19/T790M/C797S (Homo sapiens, UniProt P00533, C797S/DEL746-750/T790M); experiment: Biochemical EGFR kinase assay (Lance Ultra TR-FRET), triple mutant del19/T790M/C797S
Experimental: as §1, §2

EGFR del19/C797S = EGFR del19/C797S (Homo sapiens, UniProt P00533, C797S/DEL746-750); experiment: Biochemical EGFR kinase assay (Lance Ultra TR-FRET), double mutant del19/C797S
Sequence of EGFR del19/C797S (P00533 with tags, fused parts or gaps DEL746-750/C797S): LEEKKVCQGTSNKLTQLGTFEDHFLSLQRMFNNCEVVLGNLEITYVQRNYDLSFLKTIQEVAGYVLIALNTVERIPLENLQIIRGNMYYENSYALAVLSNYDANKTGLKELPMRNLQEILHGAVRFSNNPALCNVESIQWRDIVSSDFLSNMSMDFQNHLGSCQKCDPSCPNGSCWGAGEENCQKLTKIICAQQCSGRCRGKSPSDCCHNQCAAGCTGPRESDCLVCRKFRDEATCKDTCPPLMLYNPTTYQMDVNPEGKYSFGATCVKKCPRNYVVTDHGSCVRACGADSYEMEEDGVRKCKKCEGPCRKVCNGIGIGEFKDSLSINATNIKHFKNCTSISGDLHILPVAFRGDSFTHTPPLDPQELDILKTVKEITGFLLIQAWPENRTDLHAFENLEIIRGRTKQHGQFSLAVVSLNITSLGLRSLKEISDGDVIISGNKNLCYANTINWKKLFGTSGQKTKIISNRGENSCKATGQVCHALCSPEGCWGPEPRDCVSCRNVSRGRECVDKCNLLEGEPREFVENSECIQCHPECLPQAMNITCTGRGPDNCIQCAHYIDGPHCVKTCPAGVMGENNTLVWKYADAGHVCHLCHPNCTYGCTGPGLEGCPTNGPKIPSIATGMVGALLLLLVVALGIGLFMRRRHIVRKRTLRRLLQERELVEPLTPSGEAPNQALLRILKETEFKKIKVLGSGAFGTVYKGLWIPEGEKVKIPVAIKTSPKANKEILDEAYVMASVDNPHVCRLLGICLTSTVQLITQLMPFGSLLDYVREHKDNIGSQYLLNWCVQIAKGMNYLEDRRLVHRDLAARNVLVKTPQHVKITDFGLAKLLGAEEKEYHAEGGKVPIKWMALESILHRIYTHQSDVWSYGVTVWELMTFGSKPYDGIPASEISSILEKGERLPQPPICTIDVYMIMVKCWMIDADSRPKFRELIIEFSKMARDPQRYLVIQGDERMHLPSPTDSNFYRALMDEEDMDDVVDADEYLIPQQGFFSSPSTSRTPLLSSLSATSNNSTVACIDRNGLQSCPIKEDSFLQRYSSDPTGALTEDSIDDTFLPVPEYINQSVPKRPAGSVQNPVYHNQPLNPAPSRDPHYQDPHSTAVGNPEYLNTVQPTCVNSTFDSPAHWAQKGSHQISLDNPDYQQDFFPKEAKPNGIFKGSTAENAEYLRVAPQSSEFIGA
Experimental: as §1, §2

EGFR L858R/C797S = EGFR L858R/C797S (Homo sapiens, UniProt P00533, C797S/L858R); experiment: Biochemical EGFR kinase assay (Lance Ultra TR-FRET), double mutant L858R/C797S
Sequence of EGFR L858R/C797S (P00533 25-1210 C797S/L858R): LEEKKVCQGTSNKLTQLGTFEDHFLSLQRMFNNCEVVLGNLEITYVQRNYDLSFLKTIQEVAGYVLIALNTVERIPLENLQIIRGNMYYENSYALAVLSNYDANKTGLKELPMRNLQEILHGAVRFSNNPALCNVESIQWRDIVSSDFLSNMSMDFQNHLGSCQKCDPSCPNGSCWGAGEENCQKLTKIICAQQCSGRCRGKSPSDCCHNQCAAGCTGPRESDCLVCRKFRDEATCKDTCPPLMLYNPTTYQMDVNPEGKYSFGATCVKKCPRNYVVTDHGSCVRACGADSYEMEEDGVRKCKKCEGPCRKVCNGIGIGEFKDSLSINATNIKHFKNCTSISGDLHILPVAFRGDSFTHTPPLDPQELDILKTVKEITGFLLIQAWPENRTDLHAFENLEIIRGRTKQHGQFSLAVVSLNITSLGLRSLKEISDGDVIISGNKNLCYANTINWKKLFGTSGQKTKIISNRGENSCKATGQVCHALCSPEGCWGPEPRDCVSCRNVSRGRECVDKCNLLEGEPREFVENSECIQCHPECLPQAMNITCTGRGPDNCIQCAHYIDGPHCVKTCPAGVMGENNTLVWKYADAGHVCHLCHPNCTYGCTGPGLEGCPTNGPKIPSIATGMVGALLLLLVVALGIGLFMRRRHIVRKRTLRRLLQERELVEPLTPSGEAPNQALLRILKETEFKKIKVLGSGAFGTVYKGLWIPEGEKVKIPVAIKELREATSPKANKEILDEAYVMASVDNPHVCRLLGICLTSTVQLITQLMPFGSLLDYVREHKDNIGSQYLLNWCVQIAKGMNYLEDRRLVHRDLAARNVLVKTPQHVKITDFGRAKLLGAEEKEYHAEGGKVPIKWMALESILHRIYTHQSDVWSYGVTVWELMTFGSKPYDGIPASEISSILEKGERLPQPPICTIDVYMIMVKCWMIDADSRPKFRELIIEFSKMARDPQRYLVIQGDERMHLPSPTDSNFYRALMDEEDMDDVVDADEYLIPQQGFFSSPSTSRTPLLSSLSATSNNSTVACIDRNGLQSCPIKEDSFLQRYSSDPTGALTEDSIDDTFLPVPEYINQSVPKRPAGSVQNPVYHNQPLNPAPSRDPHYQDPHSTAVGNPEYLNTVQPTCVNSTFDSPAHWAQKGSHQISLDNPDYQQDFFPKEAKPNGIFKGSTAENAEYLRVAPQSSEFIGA
Experimental: as §1, §2

[1] = Km ATP, read-out: IC50 L858R/T790M/C797S (nM) Km ATP
[2] = Km ATP, read-out: IC50 WT (nM) Km ATP
[3] = Km ATP, read-out: IC50 del19/T790M/C797S (nM) Km ATP
[4] = Km ATP, read-out: IC50 del19/C797S (nM) Km ATP
[5] = Km ATP, read-out: IC50 L858R/C797S (nM) Km ATP
[6] = IC50 L858R/T790M/C797S (nM) 100 μM ATP, 100 μM ATP
[7] = IC50 WT (nM) 100 μM ATP, 100 μM ATP
[8] = IC50 del19/T790M/C797S (nM) 100 μM ATP, 100 μM ATP
[9] = IC50 del19/C797S (nM) 100 μM ATP, 100 μM ATP
[10] = IC50 L858R/C797S (nM) 100 μM ATP, 100 μM ATP

Sequence of EGFR L858R/T790M/C797S (P00533 25-1210 T790M/C797S/L858R): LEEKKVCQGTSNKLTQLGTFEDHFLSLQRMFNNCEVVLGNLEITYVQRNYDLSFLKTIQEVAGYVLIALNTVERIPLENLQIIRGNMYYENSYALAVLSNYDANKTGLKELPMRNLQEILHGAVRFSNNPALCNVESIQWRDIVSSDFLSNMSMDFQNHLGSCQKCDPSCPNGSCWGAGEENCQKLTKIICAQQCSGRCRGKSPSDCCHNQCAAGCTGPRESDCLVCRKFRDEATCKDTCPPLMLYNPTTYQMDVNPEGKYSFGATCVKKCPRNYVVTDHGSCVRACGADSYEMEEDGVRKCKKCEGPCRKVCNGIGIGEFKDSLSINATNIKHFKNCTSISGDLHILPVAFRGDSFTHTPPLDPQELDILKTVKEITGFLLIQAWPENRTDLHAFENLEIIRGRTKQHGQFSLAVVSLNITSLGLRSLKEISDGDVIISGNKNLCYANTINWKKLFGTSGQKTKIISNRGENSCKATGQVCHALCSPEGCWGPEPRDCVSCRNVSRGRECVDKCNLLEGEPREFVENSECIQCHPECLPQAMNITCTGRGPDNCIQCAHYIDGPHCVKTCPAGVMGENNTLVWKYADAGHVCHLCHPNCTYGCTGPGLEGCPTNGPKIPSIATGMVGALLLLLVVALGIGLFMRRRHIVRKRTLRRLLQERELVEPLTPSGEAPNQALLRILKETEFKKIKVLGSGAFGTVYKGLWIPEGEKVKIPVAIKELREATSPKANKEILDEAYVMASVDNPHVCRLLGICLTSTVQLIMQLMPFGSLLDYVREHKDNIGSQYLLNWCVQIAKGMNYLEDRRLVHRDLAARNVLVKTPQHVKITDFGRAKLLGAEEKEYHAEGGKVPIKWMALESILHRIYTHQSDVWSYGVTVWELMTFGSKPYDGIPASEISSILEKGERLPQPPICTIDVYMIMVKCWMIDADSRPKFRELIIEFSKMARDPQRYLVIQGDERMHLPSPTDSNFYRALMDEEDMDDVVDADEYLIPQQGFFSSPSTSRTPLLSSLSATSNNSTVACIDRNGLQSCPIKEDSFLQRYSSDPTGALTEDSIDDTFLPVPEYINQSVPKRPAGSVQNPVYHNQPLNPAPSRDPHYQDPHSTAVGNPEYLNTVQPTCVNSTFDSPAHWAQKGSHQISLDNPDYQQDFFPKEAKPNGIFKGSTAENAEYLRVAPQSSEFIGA

Compound: CC1(O)CCC(Nc2cc(Nc3ccnc(-c4cnn(S(=O)(=O)C5CC5)c4)n3)ncc2-c2cnc(OC3CCOC3)cn2)CC1 (stereo not drawn) [Example 149, (1s,4s)-4-((2-((2-(1-(Cyclopropylsulfonyl)-1H-pyrazol-4-yl)pyrimidin-4-yl)amino)-5-(5-((tetrahydrofuran-3-yl)oxy)pyrazin-2-yl)pyridin-4-yl)amino)-1-methylcyclohexan-1-ol]
- IC50 (EGFR L858R/T790M/C797S; [1]): 0.3 nM
- IC50 (EGFR wildtype; [2]): 11.2 nM
- IC50 (EGFR del19/T790M/C797S; [3]): 0.4 nM
- IC50 (EGFR del19/C797S; [4]): 1 nM
- IC50 (EGFR L858R/C797S; [5]): 0.4 nM

Compound: CC(C)(O)[C@H]1CC[C@@H](Nc2cc(Nc3ccnc(-c4cnn(S(=O)(=O)C5CC5)c4)n3)ncc2-c2cnc(N3CCC(F)(F)CC3)cn2)CC1 [Example 72, 2-((1s,4s)-4-((2-((2-(1-(Cyclopropylsulfonyl)-1H-pyrazol-4-yl)pyrimidin-4-yl)amino)-5-(5-(4,4-difluoropiperidin-1-yl)pyrazin-2-yl)pyridin-4-yl)amino)cyclohexyl)propan-2-ol]
- IC50 (EGFR L858R/T790M/C797S; [6]): 12.2 nM
- IC50 (EGFR L858R/T790M/C797S; [1]): 1.7 nM
- IC50 (EGFR wildtype; [7]): > 10000 nM
- IC50 (EGFR wildtype; [2]): 84.2 nM
- IC50 (EGFR del19/T790M/C797S; [8]): 12.7 nM
- IC50 (EGFR del19/T790M/C797S; [3]): 10.7 nM
- IC50 (EGFR del19/C797S; [9]): 21.7 nM
- IC50 (EGFR del19/C797S; [4]): 22.4 nM
- IC50 (EGFR L858R/C797S; [10]): 2430 nM
- IC50 (EGFR L858R/C797S; [5]): 61.4 nM

Compound: O=S(=O)(C1CC1)n1cc(-c2nccc(Nc3cc(N[C@H]4CC[C@@H](CO)CC4)c(-c4ccc(CN5CCC(O)CC5)cn4)cn3)n2)cn1 [Example 99, 1-((6′-((2-(1-(Cyclopropylsulfonyl)-1H-pyrazol-4-yl)pyrimidin-4-yl)amino)-4′-(((1s,4s)-4-(hydroxymethyl)cyclohexyl)amino)-[2,3′-bipyridin]-5-yl)methyl) piperidin-4-ol]
- IC50 (EGFR L858R/T790M/C797S; [6]): 0.1 nM
- IC50 (EGFR L858R/T790M/C797S; [1]): 0.04 nM
- IC50 (EGFR wildtype; [7]): 61.5 nM
- IC50 (EGFR wildtype; [2]): 0.3 nM
- IC50 (EGFR del19/T790M/C797S; [8]): 0.1 nM
- IC50 (EGFR del19/T790M/C797S; [3]): 0.1 nM
- IC50 (EGFR del19/C797S; [9]): 0.3 nM
- IC50 (EGFR del19/C797S; [4]): 0.3 nM
- IC50 (EGFR L858R/C797S; [10]): 0.7 nM
- IC50 (EGFR L858R/C797S; [5]): 0.1 nM

Compound: C[C@]1(O)CC[C@@H](Nc2cc(Nc3ccnc(-c4cnn(S(=O)(=O)C5CC5)c4)n3)ncc2-c2ccc(CN3CCOCC3)cn2)CC1 [Example 32, (1s,4s)-4-((6′-((2-(1-(Cyclopropylsulfonyl)-1H-pyrazol-4-yl)pyrimidin-4-yl)amino)-5-(morpholinomethyl)-[2,3′-bipyridin]-4′-yl)amino)-1-methylcyclohexan-1-ol]
- IC50 (EGFR L858R/T790M/C797S; [6]): 0.3 nM
- IC50 (EGFR L858R/T790M/C797S; [1]): 0.2 nM
- IC50 (EGFR wildtype; [7]): 120 nM
- IC50 (EGFR wildtype; [2]): 0.3 nM
- IC50 (EGFR del19/T790M/C797S; [8]): 0.4 nM
- IC50 (EGFR del19/T790M/C797S; [3]): 0.2 nM
- IC50 (EGFR del19/C797S; [9]): 0.1 nM
- IC50 (EGFR del19/C797S; [4]): 0.2 nM
- IC50 (EGFR L858R/C797S; [10]): 1.9 nM
- IC50 (EGFR L858R/C797S; [5]): 0.1 nM

Compound: CN(C)CCOc1cnc(-c2cnc(Nc3ccnc(-c4cnn(S(=O)(=O)C5CC5)c4)n3)cc2N[C@H]2CC[C@@H](CO)CC2)cn1 [Example 116, ((1s,4s)-4-((2-((2-(1-(Cyclopropylsulfonyl)-1H-pyrazol-4-yl)pyrimidin-4-yl)amino)-5-(5-(2-(dimethylamino)ethoxy)pyrazin-2-yl)pyridin-4-yl)amino)cyclohexyl)methanol]
- IC50 (EGFR L858R/T790M/C797S; [6]): 0.04 nM
- IC50 (EGFR L858R/T790M/C797S; [1]): 0.04 nM
- IC50 (EGFR wildtype; [7]): 384 nM
- IC50 (EGFR wildtype; [2]): 0.4 nM
- IC50 (EGFR del19/T790M/C797S; [8]): 0.1 nM
- IC50 (EGFR del19/T790M/C797S; [3]): 0.1 nM
- IC50 (EGFR del19/C797S; [9]): 0.1 nM
- IC50 (EGFR del19/C797S; [4]): 0.1 nM
- IC50 (EGFR L858R/C797S; [10]): 0.3 nM
- IC50 (EGFR L858R/C797S; [5]): 0.1 nM

Compound: O=S(=O)(C1CC1)n1cc(-c2nccc(Nc3cc(N[C@H]4CC[C@H](CCO)CC4)c(-c4cc(C(F)F)ccn4)cn3)n2)cn1 [Example 96, 2-((1r,4r)-4-((6′-((2-(1-(Cyclopropylsulfonyl)-1H-pyrazol-4-yl)pyrimidin-4-yl)amino)-4-(difluoromethyl)-[2,3′-bipyridin]-4′-yl)amino)cyclohexyl)ethan-1-ol]
- IC50 (EGFR L858R/T790M/C797S; [6]): 0.8 nM
- IC50 (EGFR L858R/T790M/C797S; [1]): 0.7 nM
- IC50 (EGFR wildtype; [7]): > 10000 nM
- IC50 (EGFR wildtype; [2]): 84.7 nM
- IC50 (EGFR del19/T790M/C797S; [8]): 2 nM
- IC50 (EGFR del19/C797S; [9]): 224 nM
- IC50 (EGFR del19/C797S; [4]): 68 nM
- IC50 (EGFR L858R/C797S; [10]): 2220 nM
- IC50 (EGFR L858R/C797S; [5]): 27.4 nM
